Experimental data: US20230183169A1, “AROMATIC COMPOUND, PREPARATION METHOD THEREFOR AND USE THEREOF IN DRUG” (SICHUAN ACADEMY OF MEDICAL SCIENCES - SICHUAN PROVINCIAL …, priority 2020, published 2023)
Where a name gives a salt, the structure may show the parent alone.

Legend:
[1] = tested on: left sciatic nerve of rats; assay: Sciatic nerve blocking experiment in rats (Von Frey filaments 60 g); assay type: in vivo, rat
Description: The compounds of the examples were dissolved in water for injection to a concentration of 0.5-2.0 g/100 mL (0.5%-2%), or mixed with commercially-available clinically-common local anesthetic drugs to prepare a mixed solution with a specific proportion, and the 0.75% levobupivacaine was used as the positive control compound. The experimental method was as follows: male SD rats weighing 180-300 g were anesthetized with isoflurane, 0.2 mL of the drug-containing solution was injected near the left sciatic nerve of rats, and 8 rats were used for each drug for the experiment. After the rats woke up, the first measurement was performed, and then the measurement was performed every 2 hours. If there was still an anesthetic effect after six measurements, the measurement was performed every 6 hours until the anesthetic effect disappeared. The method for judging the existence of anesthetic effect was as follows. The skin of the sole and lateral surface of the hindlimb of the rat on the side injected with the drug was stimulated using Von Frey filaments (60 g). […] If there was no such behavior, it was considered that the local anesthetic effect existed.

rats = assay: Mortality rate after injection of drugs through tail vein; assay type: in vivo, rat; conditions: 0.4 mL through tail vein, 10 rats
Description: 0.2% aqueous solution of the compounds of the present invention and 0.75% levobupivacaine solution were injected into the rats through tail vein in 0.4 mL, and the mortality rate was observed. Each drug was injected into 10 rats (half male and half female, weighing 290-310).

male SD rats = assay: Subcutaneous infiltration anesthesia in rats (acupuncture stimulation of back skin); assay type: in vivo, rat; conditions: for Duration of local anesthesia: 0.4 mL subcutaneous
Description: The compounds of the examples were dissolved in water for injection to a concentration of 0.2-0.5 g/100 mL (0.2-0.5%), or mixed with commercially-available clinically-common local anesthetic drugs to prepare a mixed solution with a specific proportion, and the 0.75% levobupivacaine was used as the positive control compound. The experimental method was as follows: male SD rats weighing 180-300 g were shaved off back hair 1 day before the experiment, and a circular skin area with a diameter of 4 cm was exposed. 0.4 mL of the drug solution was subcutaneously injected to the exposed circular center on the back using a 1 mL syringe to form a skin mound. After 1 minute, the first measurement was performed. Each of 8 random parts around the center of the injection site was stimulated once by acupuncture of 15 g force using a 26G needle (the stimulation site was no more than 1 cm away from the injection center). […] If there was no such behavior, it was considered that the local anesthetic effect existed. […] Except for the first measurement, the measurement was performed every 2 hours within 12 hours after the administration, and every 6 hours after 12 hours after the administration. 8 rats were used for each drug for the experiment.

[2] = background, literature; cited from earlier work
[3] = 0.5%, 0.2 mL near left sciatic nerve
[4] = 0.5 + 0.35% bupivacaine hydrochloride, 0.2 mL near sciatic nerve
[5] = 1.0%, 0.2 mL near left sciatic nerve
[6] = 2.0%, 0.2 mL near left sciatic nerve
[7] = 0.15 + 0.35% bupivacaine hydrochloride
[8] = 0.5 + 0.35% lidocaine hydrochloride, 0.2 mL near sciatic nerve
[9] = 0.15 + 0.35% lidocaine hydrochloride
[10] = 0.5 + 0.15% tetracaine hydrochloride, 0.2 mL near sciatic nerve
[11] = 0.15 + 0.15% tetracaine hydrochloride
[12] = 0.75%, 0.2 mL near left sciatic nerve

| Compound | Duration of local anesthesia [1, 3] | Duration of local anesthesia [1, 5] | Duration of local anesthesia [1, 6] | Mortality rate % (rats; 0.2% aqueous solution) | Duration of local anesthesia (male SD rats; 0.2%, rat back) | Duration of local anesthesia (male SD rats; 0.5%, rat back) | other results |
| --- | --- | --- | --- | --- | --- | --- | --- |
| CC[N+](CC)(CC)CC(=O)Nc1c(C)cc(O)cc1C [Compound 1] | 4 to 10 h | 12 to 18 h | 30 to 48 h | 0% | 6 to 8 h | 10 to 12 h | Duration of local anesthesia [1, 4]: 18 to 30 h; Duration of local anesthesia (male SD rats; [7]): 24 to 30 h |
| CC[N+](CC)(CC)CC(=O)Nc1c(C)cc(OC(C)=O)cc1C [Compound 3] | 10 to 12 h | 18 to 30 h | 54 to 96 h | 0% | 8 to 14 h | 12 to 18 h | Duration of local anesthesia [1, 4]: 24 to 36 h; Duration of local anesthesia (male SD rats; [7]): 18 to 24 h |
| CC[N+](CC)(CC)CC(=O)Nc1c(C)cc(N)cc1C [Compound 7] | <2 h | <2 h | 2 to 4 h | – | 2 to 4 h | 2 to 4 h | Duration of local anesthesia [1, 4]: 2 to 4 h; Duration of local anesthesia (male SD rats; [7]): 4 to 6 h; Local anesthetic effect at the first measurement (male SD rats; injections of 0.2% and 0.5%, first measurement 1 minute after subcutaneous injection): not effective |
| CC[N+](CC)(CC)CC(=O)Nc1c(C)cc(OC(C)C)cc1C [Compound 15] | 12 to 18 h | 24 to 36 h | 120 to 144 h | 0% | 24 to 30 h | 42 to 54 h | Duration of local anesthesia [1, 4]: 30 to 42 h; Duration of local anesthesia (male SD rats; [7]): 36 to 42 h |
| CCCCCCOc1cc(C)c(NC(=O)C[N+](CC)(CC)CC)c(C)c1 [Compound 17] | 24 to 42 h | 42 to 66 h | 96 to 144 h | 0% | 36 to 48 h | 54 to 60 h | Duration of local anesthesia [1, 4]: 48 to 66 h; Duration of local anesthesia (male SD rats; [7]): 54 to 72 h |
| C=CC[N+]1(CC(=O)Nc2c(C)cc(OC(=O)CCC)cc2C)CCCCC1 [Compound 26] | 24 to 30 h | 48 to 60 h | 96 to 160 h | 0% | 24 to 36 h | 54 to 66 h | Duration of local anesthesia ([1]; 0.5 + 0.35% levobupivacaine hydrochloride, 0.2 mL near sciatic nerve): 36 to 48 h; Duration of local anesthesia (male SD rats; 0.15 + 0.35% levobupivacaine hydrochloride): 42 to 54 h |
| CCCCCOC(=O)Oc1cc(C)c(NC(=O)C[N+](CC)(CC)CC)c(C)c1 [Compound 27] | 12 to 24 h | 30 to 42 h | 96 to 144 h | 0% | 18 to 30 h | 36 to 48 h | Duration of local anesthesia ([1]; 0.5 + 0.5% lidocaine hydrochloride, 0.2 mL near sciatic nerve): 36 to 66 h; Duration of local anesthesia (male SD rats; 0.15 + 0.5% lidocaine hydrochloride): 36 to 60 h |
| CCCCCN(C)CC(=O)Oc1cc(C)c(NC(=O)C[N+](CC)(CC)CC)c(C)c1 [Compound 28] | 30 to 36 h | 48 to 60 h | 120 to 144 h | 0% | 36 to 48 h | 54 to 72 h | Duration of local anesthesia [1, 8]: 48 to 54 h; Duration of local anesthesia (male SD rats; [9]): 54 to 66 h |
| CC[N+](CC)(CCO)CC(=O)Nc1c(C)cc(OC(=O)CCCc2ccc(Cl)cc2)cc1C [Compound 31] | 12 to 18 h | 24 to 30 h | 72 to 120 h | 0% | 24 to 30 h | 36 to 54 h | Duration of local anesthesia [1, 8]: 24 to 42 h; Duration of local anesthesia (male SD rats; [9]): 36 to 42 h |
| CCCC(=O)Oc1cc(C)c(NC(=O)C2CCCC[N+]2(C)CCC)c(C)c1 (stereo not drawn) [Compound 33] | 24 to 30 h | 48 to 66 h | 120 to 144 h | 0% | 36 to 54 h | 60 to 72 h | Duration of local anesthesia [1, 10]: 60 to 84 h; Duration of local anesthesia (male SD rats; [11]): 66 to 84 h |
| CCN(CCCCCOc1cc(C)c(NC(=O)C[N+](CC)(CC)CC)c(C)c1)CC(=O)Nc1c(C)cccc1C [Compound 45] | 18 to 24 h | 30 to 42 h | 96 to 120 h | 0% | 24 to 36 h | 42 to 60 h | Duration of local anesthesia [1, 10]: 36 to 42 h; Duration of local anesthesia (male SD rats; [11]): 36 to 48 h |
| CC[N+](CC)(CC)CC(=O)Nc1c(C)cc(OC(=O)OCCCN2CCCCC2C(=O)Nc2c(C)cccc2C)cc1C (stereo not drawn) [Compound 48] | 24 to 36 h | 54 to 72 h | 120 to 160 h | 0% | 36 to 54 h | 60 to 78 h | Duration of local anesthesia [1, 10]: 60 to 72 h; Duration of local anesthesia (male SD rats; [11]): 66 to 72 h |
| CC[N+](CC)(CC)CC(=O)Nc1c(C)cc(OC(=O)CCCCCCCN2CCCCC2C(=O)Nc2c(C)cccc2C)cc1C (stereo not drawn) [Compound 50] | 24 to 30 h | 36 to 48 h | 96 to 120 h | 0% | 18 to 30 h | 24 to 48 h | Duration of local anesthesia [1, 10]: 36 to 60 h; Duration of local anesthesia (male SD rats; [11]): 42 to 54 h |
| CC[N+](CC)(CCO)CC(=O)Nc1c(C)cc(OCCCCN2CCCCC2C(=O)Nc2c(C)cccc2C)cc1C (stereo not drawn) [Compound 53] | 30 to 36 h | 42 to 54 h | 72 to 84 h | 0% | 24 to 30 h | 48 to 54 h | Duration of local anesthesia [1, 10]: 42 to 66 h; Duration of local anesthesia (male SD rats; [11]): 36 to 48 h |
| CCCCN1CCCC[C@H]1C(=O)Nc1c(C)cccc1C [Levobupivacaine hydrochloride, reference compound] | – | – | – | – | – | – | Duration of local anesthesia [1, 12]: 2 to 6 h; Duration of motor block ([1]; 0.75%, compared with sensory block): basically the same as that of the sensory block; Block of motor function of the hindlimb ([1]; 0.75%, side injected with the drug): significantly blocked the motor function; Mortality rate % (rats; 0.75% solution, hydrochloride): 70%; Mortality rate % (rats; 0.75% solution, listed as levobupivaca, hydrochloride): death of most animals; Mortality rate % (rats; 0.75% solution, listed as levobupivacaine, hydrochloride): 70%; Duration of local anesthesia (male SD rats; 0.75%, rat back, hydrochloride): 4 to 6 h; Duration of local anesthesia (male SD rats; 0.75%, rat back, listed as levobupivacaine, hydrochloride): 4 to 6 h |
| CCCCN1CCCCC1C(=O)Nc1c(C)cccc1C (stereo not drawn) [bupivacaine, reference compound] | – | – | – | – | – | – | Duration of local anesthesia [1, 12]: 2 to 6 h; Duration of local anesthesia (male SD rats; 0.75%, rat back): 4 to 6 h |
| CCN(CC)CC(=O)Nc1c(C)cccc1C [lidocaine] | – | – | – | – | – | – | Duration of local anesthesia [2]: 2 h |
